In patent US20250352512A2, “C4-S[…] DERIVATIVES AND METHODS OF USING” (priority 2022, published 2025) one finds EC50, IC50 and 5-HT1A receptor modulation data, which are given here for 1 compound.

T2 sequence (P41143 whole entry): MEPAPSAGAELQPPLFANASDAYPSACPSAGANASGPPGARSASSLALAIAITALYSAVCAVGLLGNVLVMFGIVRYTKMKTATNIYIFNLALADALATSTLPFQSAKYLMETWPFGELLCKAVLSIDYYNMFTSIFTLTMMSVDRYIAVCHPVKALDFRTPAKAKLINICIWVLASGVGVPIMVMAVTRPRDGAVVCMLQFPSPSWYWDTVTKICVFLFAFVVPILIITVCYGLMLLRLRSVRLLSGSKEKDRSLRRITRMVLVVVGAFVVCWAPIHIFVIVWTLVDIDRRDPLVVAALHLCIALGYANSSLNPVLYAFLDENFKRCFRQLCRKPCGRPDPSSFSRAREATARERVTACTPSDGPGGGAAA
Sequence of HTR1B (5-HTR1B) (P28222 whole entry): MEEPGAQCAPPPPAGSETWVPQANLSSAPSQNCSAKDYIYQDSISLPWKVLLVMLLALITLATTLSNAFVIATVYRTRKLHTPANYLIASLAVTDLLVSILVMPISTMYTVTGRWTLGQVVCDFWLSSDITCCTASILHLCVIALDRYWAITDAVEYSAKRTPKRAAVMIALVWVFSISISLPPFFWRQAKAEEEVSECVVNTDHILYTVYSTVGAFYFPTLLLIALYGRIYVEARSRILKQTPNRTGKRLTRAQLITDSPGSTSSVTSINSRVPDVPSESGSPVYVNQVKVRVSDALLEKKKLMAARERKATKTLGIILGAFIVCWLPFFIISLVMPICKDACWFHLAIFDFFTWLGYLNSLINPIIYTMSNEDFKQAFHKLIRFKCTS
Sequence of DAT (Q01959 whole entry): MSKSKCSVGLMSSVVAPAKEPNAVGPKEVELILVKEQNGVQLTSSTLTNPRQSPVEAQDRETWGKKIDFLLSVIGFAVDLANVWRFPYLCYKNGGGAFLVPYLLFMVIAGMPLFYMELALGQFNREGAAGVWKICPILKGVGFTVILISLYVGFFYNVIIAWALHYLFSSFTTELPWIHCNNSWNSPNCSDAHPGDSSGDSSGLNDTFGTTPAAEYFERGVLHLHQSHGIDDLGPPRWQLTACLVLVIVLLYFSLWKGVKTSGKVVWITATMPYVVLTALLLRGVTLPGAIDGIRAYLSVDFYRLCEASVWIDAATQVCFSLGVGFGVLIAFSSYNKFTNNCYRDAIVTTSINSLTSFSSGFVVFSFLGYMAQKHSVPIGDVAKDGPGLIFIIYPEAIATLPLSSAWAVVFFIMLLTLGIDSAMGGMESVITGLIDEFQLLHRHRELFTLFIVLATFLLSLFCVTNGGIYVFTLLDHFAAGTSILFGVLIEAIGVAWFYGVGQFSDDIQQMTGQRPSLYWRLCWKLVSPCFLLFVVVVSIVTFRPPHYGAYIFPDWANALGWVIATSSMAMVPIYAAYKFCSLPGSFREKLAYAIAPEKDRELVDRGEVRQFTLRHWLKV

The target of the first experiment is T1, ADRA1A (Homo sapiens, UniProt P35348).
T1 sequence (P35348 1-466): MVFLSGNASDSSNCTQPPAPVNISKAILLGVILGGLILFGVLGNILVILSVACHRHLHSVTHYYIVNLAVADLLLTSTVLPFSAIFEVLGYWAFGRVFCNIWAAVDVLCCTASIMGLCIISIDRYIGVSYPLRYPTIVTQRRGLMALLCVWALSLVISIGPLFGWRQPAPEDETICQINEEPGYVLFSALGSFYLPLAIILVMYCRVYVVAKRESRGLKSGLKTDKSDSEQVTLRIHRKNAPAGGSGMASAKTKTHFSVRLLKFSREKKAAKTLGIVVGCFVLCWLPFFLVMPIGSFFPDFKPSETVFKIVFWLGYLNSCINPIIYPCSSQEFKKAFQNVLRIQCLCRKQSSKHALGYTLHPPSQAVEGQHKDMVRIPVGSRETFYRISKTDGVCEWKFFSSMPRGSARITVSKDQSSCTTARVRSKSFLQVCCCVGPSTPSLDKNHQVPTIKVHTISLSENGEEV
The experiment is described as follows: cell-based.
Conditions: not given
Usually EC50 stands for the concentration that produces a half-maximal response. Consider `CN(C)CCc1c[nH]c2cccc(OC(=O)OCc3ccccc3)c12` [B(II)], for which the EC50 was over 100 µM.

The next experiment has as its target T2, OPRD1 (Homo sapiens, UniProt P41143). The experiment is described as follows: cell-based.
Conditions: not given
What is called IC50 is the concentration that inhibits the measured activity by half. Regarding `CN(C)CCc1c[nH]c2cccc(OC(=O)OCc3ccccc3)c12` [B(II)], the IC50 was over 100 µM.

The next experiment addresses T3, HTR1A (5-HT1A) (Homo sapiens, UniProt P08908).
T3 sequence (P08908 1-422): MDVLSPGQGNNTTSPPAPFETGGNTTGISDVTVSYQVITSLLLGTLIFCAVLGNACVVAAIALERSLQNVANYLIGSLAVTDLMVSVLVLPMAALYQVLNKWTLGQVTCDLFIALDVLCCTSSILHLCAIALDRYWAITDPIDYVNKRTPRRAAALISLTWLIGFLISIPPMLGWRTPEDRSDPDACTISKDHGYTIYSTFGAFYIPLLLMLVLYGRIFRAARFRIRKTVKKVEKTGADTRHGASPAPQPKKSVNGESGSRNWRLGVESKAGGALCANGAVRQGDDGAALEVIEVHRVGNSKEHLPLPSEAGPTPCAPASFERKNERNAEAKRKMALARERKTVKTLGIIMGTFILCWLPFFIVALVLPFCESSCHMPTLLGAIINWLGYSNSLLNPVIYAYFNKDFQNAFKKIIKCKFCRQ
As to the kind of experiment: cell-based.
Conditions: not given
On to `CN(C)CCc1c[nH]c2cccc(OC(=O)OCc3ccccc3)c12` [B(II)], for which the EC50 came out at 13.6 µM.

The target of the next experiment is T4, HTR2B (5-HT2B) (Homo sapiens, UniProt P41595). The experiment is described as follows: cell-based.
T4 sequence (P41595 whole entry): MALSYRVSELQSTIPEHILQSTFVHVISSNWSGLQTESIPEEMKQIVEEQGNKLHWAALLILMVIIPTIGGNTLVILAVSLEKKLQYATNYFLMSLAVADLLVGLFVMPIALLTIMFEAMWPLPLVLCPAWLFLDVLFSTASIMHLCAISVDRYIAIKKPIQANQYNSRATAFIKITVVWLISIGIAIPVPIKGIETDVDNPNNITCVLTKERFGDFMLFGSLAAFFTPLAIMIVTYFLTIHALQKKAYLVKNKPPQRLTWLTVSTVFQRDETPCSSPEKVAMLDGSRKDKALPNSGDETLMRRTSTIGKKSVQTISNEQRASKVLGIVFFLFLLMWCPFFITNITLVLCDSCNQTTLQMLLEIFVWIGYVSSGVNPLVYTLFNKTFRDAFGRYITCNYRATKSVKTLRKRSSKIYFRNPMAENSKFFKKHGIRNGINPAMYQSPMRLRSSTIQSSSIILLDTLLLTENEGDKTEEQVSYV
Conditions: not given
Consider `CN(C)CCc1c[nH]c2cccc(OC(=O)OCc3ccccc3)c12` [B(II)], for which the EC50 is over 100 µM.

In a further experiment the target is T5, DRD1 (Homo sapiens, UniProt P21728). The experiment is described as follows: cell-based.
T5 sequence (P21728 whole entry): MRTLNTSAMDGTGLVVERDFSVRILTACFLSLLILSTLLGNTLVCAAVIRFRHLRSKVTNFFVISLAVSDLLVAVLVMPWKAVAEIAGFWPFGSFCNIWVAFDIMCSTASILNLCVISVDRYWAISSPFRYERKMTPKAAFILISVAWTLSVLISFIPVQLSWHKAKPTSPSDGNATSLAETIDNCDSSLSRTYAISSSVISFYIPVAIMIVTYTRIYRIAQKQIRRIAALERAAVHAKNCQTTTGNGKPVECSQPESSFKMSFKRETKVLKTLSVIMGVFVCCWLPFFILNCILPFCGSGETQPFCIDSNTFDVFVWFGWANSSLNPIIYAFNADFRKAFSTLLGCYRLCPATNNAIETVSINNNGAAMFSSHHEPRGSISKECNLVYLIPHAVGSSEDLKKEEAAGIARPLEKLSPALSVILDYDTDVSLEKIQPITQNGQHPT
Conditions: not given
`CN(C)CCc1c[nH]c2cccc(OC(=O)OCc3ccccc3)c12` [B(II)]: the EC50 is over 100 µM.

In a further experiment the target is T6, ADRA2A (Homo sapiens, UniProt P08913).
T6 sequence (P08913 1-465): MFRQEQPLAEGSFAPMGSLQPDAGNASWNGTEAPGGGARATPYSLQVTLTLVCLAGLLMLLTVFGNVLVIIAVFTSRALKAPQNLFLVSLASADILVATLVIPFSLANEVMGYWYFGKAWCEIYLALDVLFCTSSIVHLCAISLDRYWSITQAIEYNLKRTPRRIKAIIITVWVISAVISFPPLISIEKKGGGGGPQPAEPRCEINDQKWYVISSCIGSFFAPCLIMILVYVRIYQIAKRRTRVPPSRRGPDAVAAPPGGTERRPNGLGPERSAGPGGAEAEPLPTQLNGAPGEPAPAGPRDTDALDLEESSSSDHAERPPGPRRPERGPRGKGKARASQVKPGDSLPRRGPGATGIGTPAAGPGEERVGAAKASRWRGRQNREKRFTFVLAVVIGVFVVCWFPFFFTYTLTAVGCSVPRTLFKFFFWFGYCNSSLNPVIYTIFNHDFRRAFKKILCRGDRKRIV
As to the kind of experiment: cell-based.
Conditions: not given
Regarding `CN(C)CCc1c[nH]c2cccc(OC(=O)OCc3ccccc3)c12` [B(II)], the EC50 was over 100 µM.

A further experiment deals with T4, HTR2B (5-HT2B). As to the kind of experiment: cell-based.
Conditions: not given
The source holds these as a separate data set.
For the compound `CN(C)CCc1c[nH]c2cccc(OC(=O)OCc3ccccc3)c12` [B(II)], it took 281 nM to reach half-maximal inhibition (IC50).

For the next experiment, the target named is NMDAR (Homo sapiens, UniProt Q05586+Q13224). As to the kind of experiment: cell-based.
Sequence of NMDAR (Q13224 27-1484, other chains not shown): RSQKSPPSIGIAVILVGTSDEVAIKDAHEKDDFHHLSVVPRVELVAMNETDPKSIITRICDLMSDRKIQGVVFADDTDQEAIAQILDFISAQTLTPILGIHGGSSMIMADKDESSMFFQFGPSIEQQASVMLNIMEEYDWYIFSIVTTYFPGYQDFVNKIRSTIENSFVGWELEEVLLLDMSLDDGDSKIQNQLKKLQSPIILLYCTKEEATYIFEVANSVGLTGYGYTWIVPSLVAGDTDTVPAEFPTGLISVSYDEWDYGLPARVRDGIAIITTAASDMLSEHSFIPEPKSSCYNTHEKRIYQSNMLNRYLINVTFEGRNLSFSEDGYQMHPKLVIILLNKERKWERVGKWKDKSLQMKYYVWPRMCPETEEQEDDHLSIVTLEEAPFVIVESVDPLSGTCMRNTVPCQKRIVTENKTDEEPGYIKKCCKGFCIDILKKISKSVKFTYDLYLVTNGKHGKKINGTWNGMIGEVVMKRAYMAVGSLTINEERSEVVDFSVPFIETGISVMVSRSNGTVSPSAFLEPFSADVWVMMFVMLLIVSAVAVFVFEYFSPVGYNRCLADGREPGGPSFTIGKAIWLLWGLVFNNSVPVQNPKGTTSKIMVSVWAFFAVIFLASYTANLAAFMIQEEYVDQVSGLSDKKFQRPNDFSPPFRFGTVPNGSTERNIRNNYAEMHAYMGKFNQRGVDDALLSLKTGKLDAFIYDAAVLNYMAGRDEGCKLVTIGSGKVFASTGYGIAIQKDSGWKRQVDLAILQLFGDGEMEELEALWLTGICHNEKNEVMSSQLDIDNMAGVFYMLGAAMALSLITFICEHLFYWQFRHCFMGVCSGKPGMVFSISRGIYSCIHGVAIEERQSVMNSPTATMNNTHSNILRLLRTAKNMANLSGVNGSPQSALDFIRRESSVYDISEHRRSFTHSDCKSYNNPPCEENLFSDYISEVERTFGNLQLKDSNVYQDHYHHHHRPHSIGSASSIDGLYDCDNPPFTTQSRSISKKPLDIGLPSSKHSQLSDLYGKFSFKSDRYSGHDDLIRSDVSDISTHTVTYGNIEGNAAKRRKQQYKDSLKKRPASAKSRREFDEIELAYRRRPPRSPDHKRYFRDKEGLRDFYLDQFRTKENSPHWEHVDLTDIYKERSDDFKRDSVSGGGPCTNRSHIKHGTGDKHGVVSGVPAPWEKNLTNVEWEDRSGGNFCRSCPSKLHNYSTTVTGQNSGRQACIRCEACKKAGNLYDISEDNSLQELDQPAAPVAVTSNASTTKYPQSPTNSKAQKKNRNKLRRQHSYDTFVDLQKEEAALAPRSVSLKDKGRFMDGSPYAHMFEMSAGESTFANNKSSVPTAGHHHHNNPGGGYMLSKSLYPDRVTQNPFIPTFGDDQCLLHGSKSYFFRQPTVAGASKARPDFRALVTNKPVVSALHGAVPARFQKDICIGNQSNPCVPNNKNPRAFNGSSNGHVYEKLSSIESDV
Conditions: not given
`CN(C)CCc1c[nH]c2cccc(OC(=O)OCc3ccccc3)c12` [B(II)] displayed an EC50 of over 100 µM.

The target of the next experiment is T7, HTR2A (Homo sapiens, UniProt P28223). The experiment is described as follows: cell-based. The following applies: HTR2A, GPCR, ANT (antagonist); read-out: IC50.
T7 sequence (P28223 whole entry): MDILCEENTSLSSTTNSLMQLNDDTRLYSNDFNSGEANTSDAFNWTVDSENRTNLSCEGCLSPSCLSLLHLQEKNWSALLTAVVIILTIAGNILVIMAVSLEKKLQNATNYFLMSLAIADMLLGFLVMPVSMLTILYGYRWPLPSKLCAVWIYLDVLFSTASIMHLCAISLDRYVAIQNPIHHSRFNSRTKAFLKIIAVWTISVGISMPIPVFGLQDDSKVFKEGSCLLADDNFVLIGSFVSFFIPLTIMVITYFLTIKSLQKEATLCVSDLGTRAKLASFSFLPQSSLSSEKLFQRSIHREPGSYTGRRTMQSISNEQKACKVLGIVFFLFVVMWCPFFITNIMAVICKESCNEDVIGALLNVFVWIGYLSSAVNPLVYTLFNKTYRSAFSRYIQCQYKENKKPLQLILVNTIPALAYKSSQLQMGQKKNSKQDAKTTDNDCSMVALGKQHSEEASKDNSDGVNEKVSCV
Regarding `CN(C)CCc1c[nH]c2cccc(OC(=O)OCc3ccccc3)c12` [B(II)], the IC50 was determined as 908 nM.

The target of the next experiment is T5, DRD1. The experiment is described as follows: cell-based.
Conditions: not given
The source holds these as a separate data set.
`CN(C)CCc1c[nH]c2cccc(OC(=O)OCc3ccccc3)c12` [B(II)]: the midpoint of inhibition, the IC50, lay at 5.39 µM.

Another experiment addresses T8, 5-HT1A receptor (Homo sapiens, UniProt P08908).
T8 construct: host or cells: CHO-K1
T8 sequence (P08908 1-422): T3 sequence (P08908 1-422)
Test: not given
In kind it is cell-based. The following applies: comparison of +5-HT1A with -5-HT1A cultures, 4 mM forskolin.
For the compound `CN(C)CCc1c[nH]c2cccc(OC(=O)OCc3ccccc3)c12` [B(II)], the 5-HT1A receptor modulation result is on record as “suggests no receptor modulation”.

Another experiment deals with T3, HTR1A (5-HT1A). As to the kind of experiment: cell-based.
Conditions: not given
The source holds these as a separate data set.
`CN(C)CCc1c[nH]c2cccc(OC(=O)OCc3ccccc3)c12` [B(II)]: the IC50 is over 100 µM.

The target in the next experiment is DRD2S (Homo sapiens, UniProt P14416). As to the kind of experiment: cell-based.
Sequence of DRD2S (P14416 1-414 isoform P14416-2): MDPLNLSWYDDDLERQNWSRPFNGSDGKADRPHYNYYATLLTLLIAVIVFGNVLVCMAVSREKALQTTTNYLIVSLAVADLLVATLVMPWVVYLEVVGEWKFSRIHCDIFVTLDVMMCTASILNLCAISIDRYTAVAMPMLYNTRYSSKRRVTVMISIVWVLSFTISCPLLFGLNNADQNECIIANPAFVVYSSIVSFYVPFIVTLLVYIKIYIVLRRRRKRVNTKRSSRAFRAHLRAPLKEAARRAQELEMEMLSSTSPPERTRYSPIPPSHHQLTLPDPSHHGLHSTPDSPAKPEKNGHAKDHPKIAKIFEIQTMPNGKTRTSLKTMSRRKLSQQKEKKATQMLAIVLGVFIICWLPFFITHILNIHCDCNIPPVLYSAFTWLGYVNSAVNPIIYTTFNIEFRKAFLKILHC
Conditions: not given
In turn, `CN(C)CCc1c[nH]c2cccc(OC(=O)OCc3ccccc3)c12` [B(II)] yielded an IC50 of 12.4 µM.

A further experiment addresses DAT (Homo sapiens, UniProt Q01959). The experiment is described as follows: cell-based.
Conditions: not given
In turn, `CN(C)CCc1c[nH]c2cccc(OC(=O)OCc3ccccc3)c12` [B(II)] came in with an IC50 of 4.69 µM.

In the next experiment the target is T7, HTR2A. As to the kind of experiment: cell-based. The following applies: HTR2A, GPCR, AGN (agonist); read-out: EC50.
Consider `CN(C)CCc1c[nH]c2cccc(OC(=O)OCc3ccccc3)c12` [B(II)], for which the EC50 is over 100 µM.

The target of another experiment is T2, OPRD1. As to the kind of experiment: cell-based.
Conditions: not given
The source holds these as a separate data set.
As to `CN(C)CCc1c[nH]c2cccc(OC(=O)OCc3ccccc3)c12` [B(II)], the EC50 is over 100 µM.

Another experiment concerns the target HTR1B (5-HTR1B) (Homo sapiens, UniProt P28222). As to the kind of experiment: cell-based.
Conditions: not given
`CN(C)CCc1c[nH]c2cccc(OC(=O)OCc3ccccc3)c12` [B(II)] returned an IC50 of over 100 µM.

In another experiment the target is T1, ADRA1A. As to the kind of experiment: cell-based.
Conditions: not given
This is another data set of the same source.
On to `CN(C)CCc1c[nH]c2cccc(OC(=O)OCc3ccccc3)c12` [B(II)], for which the IC50 came out at 3.66 µM.

A further experiment concerns the target T6, ADRA2A. As to the kind of experiment: cell-based.
Conditions: not given
The source holds these as a separate data set.
As to `CN(C)CCc1c[nH]c2cccc(OC(=O)OCc3ccccc3)c12` [B(II)], half-maximal inhibition (IC50) was put at 9.08 µM.
